For data set [1], the system named is GATA3 mRNA. Kind of data set: GATA3 mRNA knock-down (Taqman qRT-PCR) after RNAiMax transfection of human MCF7 cells; screen and IC50 dose response. The data set is classed as cell-based. Conditions: for % KD Human: 10 nM siNA, 24 hrs; for % KD Human / IC50: MCF7 cells; for IC50 / % KD GATA3 mRNA at 10 nM / % KD GATA3 10 nM: mean ± S.D.; for % KD GATA3 mRNA at 10 nM: Table 4, MCF7 cells, no assay mark printed (same values marked * in Table 3); for % KD GATA3 10 nM: Table 5, MCF7 cells, three experiments, no assay mark printed. In short, it runs like this: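 MCF7 cells (5000/well, 24 h) transfected with siNA–RNAiMax complexes at 10 nM final siNA for 24 h without media change. GATA3 mRNA measured by TaqMan qRT-PCR, alongside β-actin and GAPDH probes. % knock-down by comparative Ct (2^−ΔΔCt) relative to non-targeting control siNA.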

Data set [2] deals with GATA3 mRNA. Description: GATA3 mRNA knock-down (Taqman qRT-PCR) after RNAiMax transfection of mouse RAG cells. The data set is classed as cell-based. As to conditions: 10 nM siNA, 24 hrs, average of 2 experiments. In short, it runs like this:
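Murine RAG cells, 5000/well, transfected 24 h after plating with siNA (10 nM final) complexed with RNAiMax, harvested after 24 h. GATA3 mRNA quantified by TaqMan qRT-PCR with GAPDH reference; % knock-down by comparative Ct (2^−ΔΔCt) versus non-targeting control siNA.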

For another data set, the system named is human GAPDH mRNA. Description: GAPDH specificity screen in human MCF7 cells (β-Actin normalised qRT-PCR). Format: cell-based. Conditions: normalised to β-Actin, three experiments, mean ± S.D. How it is done: A series of probes and primers were used to detect the various mRNA transcripts of the genes of β-Actin (human cell line only), and of GATA3 and GAPDH in mouse and human cell lines. All Taqman probes and primers for the experiments here-in described were supplied as pre-validated sets by Applied Biosystems, Inc. (see Table 2).
The assays were performed on an ABI 7900 instrument, according to the manufacturer's instructions. A TaqMan Gene Expression Master Mix (provided in the Cells-to-CT™, Applied Biosystems, Cat #4399002) was used. The PCR reactions were carried out at 50° C. for 2 min, 95° C. for 20 min followed by 40 cycles at 95° C. for 15 secs and 60° C. for 1 min.
The expression level of the gene of interest and % knock-down was calculated using Comparative Ct method: […]
These same three siNAs were tested for specificity in the human MCF7 cell line at 10 nM concentration to determine the effect of the GATA3 siNAs on the mRNA transcript of human GAPDH. In this assay, the samples from the primary screen, discussed above, O-Actin, a ubiquitously expressed ‘house-keeping’ gene, served as an endogenous control for normalization of the data.
(In qPCR the cycle at which signal appears reflects the starting amount.)

In the next data set the test system is GATA3 protein. Kind of data set: GATA3 Western Blot in transfected MCF7 cells (6-well plate). Format: cell-based, human. As to conditions: 30 nM, 48 hours, average band ratio ± S.D. How it is done:
MCF7 cells were plated in 6-well plates at final counts of 70,000 cells/well in 2 ml of complete growth media. Transfection was performed using 2.5 uL of RNAiMax per well. Final concentration of siNAs was 30 nM (screen) and 30, 0.3, and 0.003 nM (dose response study). Protein lysates were harvested 24, 48, and 72 hours post-transfection (screen) and 72 hours post-transfection (dose response study). Protein lysates were prepared using Cell Disruption Buffer from the PARIS kit (Ambion, cat #1921) according to manufacturer's instructions. Protein concentration was measured using a Bradford Quick Start Kit (Bio-Rad, cat#500-0205).
The protein source for the Western Blot experiments were from transfection of MCF7 cells in a 6 well plate, as described above.
Protein samples were diluted 1:1 in 2× Laemmli buffer with 5% β-mercapto-ethanol and incubated at 95° C. for 5 minutes. 20-40 ug of protein was loaded in each lane of 10% Tris-HCl gel. One lane was designated for MagicMark Protein Standard (Invitrogen # LC5602). The gel was run at 100V for approximately 2 hours. Protein was transferred to a PVDF membrane at 100V for 60 minutes. Once the transfer was finished, the membrane was blocked in 1% Casein in PBS (BioRad Cat#161-0783) for 1 hour on a plate rocker at room temperature followed by the overnight incubation at 4° C. with mouse monoclonal anti-GATA3 primary antibody (Santa Cruz Biotechnology, cat# HG3-31) diluted 1:500 in 1% Casein in PBS. On the next day, the blot was washed 4×5 minutes in PBST (0.1% Tween-20 in PBS) solution and incubated for 30 minutes at room temperature with goat anti-mouse secondary antibody (Pierce Biotechnology, cat#3 31430) diluted 1:20,000 in 1% Casein. […]
The protein bands were quantified by computing their density which is defined by the ratio between the total intensity of all pixels and the area of the rectangle drawn around each band (intensity/mm^2). The density was calculated by the BioRad software.
The level of protein was quantified using the Bio-Rad VersaDoc Imager according to the protocols of that piece of equipment. […]
(In general: Immunoblotting shows a protein as a band on a membrane.)

“30260-DC: GATA3 siNA duplex, site 1691: sense B GcAuGAcucAcuGGAGGAc TTB (SEQ 73), antisense GUCcuccAGuGAGucAuGcUU (SEQ 74) (sense GCAUGACUCACUGGAGGACTT; antisense GUCCUCCAGUGAGUCAUGCUU; chemistry not fully specified)”: the “% KD Human” value in the data set on GATA3 mRNA [1] (* Hs00231122_m1 Taqman Assay) is 60 ± 1* %. Besides, the “% KD Human” value with GATA3 mRNA [1] (** Hs00922328_m1 Taqman Assay) is reported as 69 ± 9** %. For the same substance, in the data set on GATA3 mRNA [1], inhibition was half-maximal at 0.254 ± 0.212 nM (IC50), the “% KD GATA3 mRNA at 10 nM” value came out at 60 ± 1% and the “% KD GATA3 10 nM” value came out at 60 ± 1%. In addition, the “% KD Mouse” value with GATA3 mRNA [2] amounted to 47 ± 0%. Moreover, in the data set with human GAPDH mRNA, the “% KD GAPDH 10 nM” value is on record as −38 ± 9%. The “Density (GATA3)/Density (α-Tubulin)” value with GATA3 protein came to 0.025 ± 0.0007.
On to “30261-DC: GATA3 siNA duplex, site 1637: sense B cAuccAGAccAGAAAccGA TTB (SEQ 75), antisense UCGGuuucuGGucuGGAuGUU (SEQ 76) (sense CAUCCAGACCAGAAACCGATT; antisense UCGGUUUCUGGUCUGGAUGUU; chemistry not fully specified)”, for which the “% KD Human” value in the data set on GATA3 mRNA [1] (* Hs00231122_m1 Taqman Assay) was 77 ± 4* %. Besides, the “% KD Human” value in the data set on GATA3 mRNA [1] (** Hs00922328_m1 Taqman Assay) is given as 77 ± 4** %. In addition, in the data set on GATA3 mRNA [1], inhibition was half-maximal at 0.051 ± 0.03 nM (IC50), the “% KD GATA3 mRNA at 10 nM” value came out at 77 ± 4% and the “% KD GATA3 10 nM” value turned out to be 77 ± 4%. Also, the “% KD Mouse” value with GATA3 mRNA [2] came out at 72 ± 2%. Moreover, the “% KD GAPDH 10 nM” value in the data set with human GAPDH mRNA is −17 ± 1%. In addition, in the data set with GATA3 protein, the “Density (GATA3)/Density (α-Tubulin)” value was found to be 0.01 ± 0.00004.

(Values after US20120029054A1, “RNA Interference Mediated Inhibition of GATA Binding Protein 3 (GATA3) Gene Expression Using Short Intefering Nucleic Acid (siNA)” (Merck Sharp & Dohme Corp., priority 2009, published 2012).)
